Among the data in PMC11170711, “Pharmacophore Virtual Screening Identifies Riboflavin as an Inhibitor of the Schistosome Cathepsin B1 Protease with Antiparasitic Activity” (ACS Omega, 2024) are IC50 values, retold here.

The experiment concerns the target T1, human cathepsin B (Homo sapiens, UniProt P07858).
T1 construct: gene CTSB
Description: fluorogenic Z-RR-AMC hydrolysis assay with recombinant enzyme, without and with […] Triton X-[…] with detergent. In kind it is biochemical.

Molecules are shown by their SMILES.

As to `Cc1cc2nc3c(=O)[nH]c(=O)nc-3n(C[C@H](O)[C@H](O)[C@H](O)CO)c2cc1C` [RBF, riboflavin], the IC50 came out at 12.1 ± 1.86 µM.
